Experimental findings from patent US20150219624A1, “METHODS FOR IDENTIFYING ANTI-CANCER COMPOUNDS” (MEMORIAL SLOAN KETTERING CANCER CENTER, priority 2013, published 2015) are described below.

This assay relates to GQ construct. The assay is described as follows: Luciferase reporter with four 12-mer motifs (GQs) vs random control 5'UTR. The class given is cell-based. Particulars: 25 nM, 24 hours. The protocol: Luciferase assays. Four tandem repeats of the (CGG)4 12-mer motif (GQs) or random sequence matched for length and GC content (random) were cloned into the 5′UTR of Renilla luciferase plasmid pGL4.73. Empty firefly luciferase plasmid pGL4.13 or HCV-IRES firefly were used as internal controls. Luciferase assays were performed using Dual-Luciferase Reporter Assay System (Promega E1960) following the manufacturer's instructions. GQs sequence:
Next, directly testing the translational effect of the 12-mer sequence motif was sought. Briefly, a luciferase reporter system was constructed to directly compare four 12-mer motifs in tandem reflecting the common occurrence of multiple motifs in sensitive mRNAs (GQ construct) to a random sequence of equal length and GC content (control construct) and using an IRES-driven firefly luciferase as an internal control (FIG. 4E). […] The RNA helicases DHX9 and DHX36 have been implicated in resolving G-quadruplex structures (Booy et al., 2012; Chakraborty and Grosse, 2011), however predominant expression was found of eIF4A in T-ALL (FIG. 4G) (Van Vlierberghe et al., 2011). Further direct testing was done of the effect of RNAi-mediated eIF4A knockdown in the same assay and a striking decrease in the translation from the GQ reporter observed, with little effect on the control sequence (FIG. 4H/I). […]

As for `COC(=O)[C@H]1[C@@H](O)[C@@]2(O)c3c(OC)cc(O[C@@H]4O[C@@H]([C@H](O)CO)CO[C@H]4OC)cc3O[C@@]2(c2ccc(OC)cc2)[C@@H]1c1ccccc1` [silvestrol], under “normalized to IRES firefly”, the “translation of the GQ construct” value is recorded as “reduced the translation”. The “translation of the control luciferase” value (random sequence control construct) is given as “did not reduce the translation”.
